One may read the Kd as the constant that tells how readily two partners part at equilibrium. A higher Kd goes with weaker binding.

The record followed here is ChEMBL document CHEMBL1136964, “Nicotinic agonist binding site mapped by methionine- and tyrosine-scanning coupled with azidochloropyridinyl photoaffinity labeling” (J Med Chem, 2009).

What all share (format): cell-based
Test [1] is described as follows: Displacement of [3H]epibatidine from Aplysia californica AchBP A107M mutant expressed in HEK293S cells by scintillation proximity assay.
Test [2] can be described thus: Displacement of [3H]epibatidine from Aplysia californica AchBP I106M, M116L mutant expressed in HEK293S cells by scintillation proximity assay.
Test [3] in a line: Displacement of [3H]epibatidine from Aplysia californica AchBP M116Y, Y195F mutant expressed in HEK293S cells by scintillation proximity assay. In general terms: Loss of bound radioactivity is the signal in a displacement assay; it reports binding, not function.
The nature of test [4]: Displacement of [3H]epibatidine from Aplysia californica AchBP I118M, M116L, Y195F mutant expressed in HEK293S cells by scintillation proximity assay.
Test [5] in a line: Displacement of [3H]epibatidine from Aplysia californica AchBP V108M mutant expressed in HEK293S cells by scintillation proximity assay.
The nature of test [6]: Displacement of [3H]epibatidine from Aplysia californica AchBP I106M, M116L, Y195F mutant expressed in HEK293S cells by scintillation proximity assay.
Test [7] in a line: Displacement of [3H]epibatidine from Aplysia californica AchBP A107M, M116L, Y195F mutant expressed in HEK293S cells by scintillation proximity assay.
Test [8] is described as follows: Displacement of [3H]epibatidine from Aplysia californica AchBP I118M, M116L mutant expressed in HEK293S cells by scintillation proximity assay.
Test [9] in a line: Displacement of [3H]epibatidine from Aplysia californica AchBP M116L,Y195F mutant expressed in HEK293S cells by scintillation proximity assay.
The nature of test [10]: Displacement of [3H]epibatidine from Aplysia californica AchBP M116Y mutant expressed in HEK293S cells by scintillation proximity assay.
A short description of test [11]: Displacement of [3H]epibatidine from Aplysia californica AchBP S114M mutant expressed in HEK293S cells by scintillation proximity assay.
Test [12] is described as follows: Displacement of [3H]epibatidine from Aplysia californica AchBP V108M, M116L mutant expressed in HEK293S cells by scintillation proximity assay.
A short description of test [13]: Displacement of [3H]epibatidine from Aplysia californica AchBP S114M, M116L mutant expressed in HEK293S cells by scintillation proximity assay.
The nature of test [14]: Displacement of [3H]epibatidine from Aplysia californica AchBP S114M, M116L, Y195F mutant expressed in HEK293S cells by scintillation proximity assay.
Test [15] can be described thus: Displacement of [3H]epibatidine from wild type Aplysia californica AchBP expressed in HEK293S cells by scintillation proximity assay.
Test [16] in a line: Displacement of [3H]epibatidine from Aplysia californica AchBP V108M, M116L, Y195F mutant expressed in HEK293S cells by scintillation proximity assay.
The nature of test [17]: Displacement of [3H]epibatidine from Aplysia californica AchBP A107M, M116L mutant expressed in HEK293S cells by scintillation proximity assay.
Test [18] is described as follows: Displacement of [3H]epibatidine from Aplysia californica AchBP M116L mutant expressed in HEK293S cells by scintillation proximity assay.
Test [19] is described as follows: Displacement of [3H]epibatidine from Aplysia californica AchBP I118M mutant expressed in HEK293S cells by scintillation proximity assay.
A short description of test [20]: Displacement of [3H]epibatidine from Aplysia californica AchBP Y195F mutant expressed in HEK293S cells by scintillation proximity assay.

For `N#C/N=c1\sccn1Cc1cnc(Cl)c(N=[N+]=[N-])c1`, the Kd in test [1] was determined as 3 nM; in test [2], 3.2 nM; in [3] it was 19 nM; in [4], 172 nM; in test [5], 1.1 nM; in [6] it was 5.5 nM. The Kd in test [7] turned out to be 17 nM; in test [8], 68 nM; in test [9], 3 nM; in test [10] it was 27 nM; in test [11], 2 nM; in [12], 0.46 nM. Besides, the Kd worked out at 3 nM in [13]; 7.2 nM in test [14]; 1.7 nM in test [15]; 0.17 nM in test [16]; 1.6 nM in test [17]; 9.6 nM in [18]. Also, the Kd in [19] worked out at 70 nM; in test [20], 2.3 nM.
As to `[N-]=[N+]=Nc1cc(C2CC3CCC2N3)cnc1Cl` (stereo not given) [AZIDOEPIBATIDINE], the Kd was determined as 7.2 nM in test [1]; 30 nM in [2]; 67 nM in test [3]; 12 nM in test [4]; 1.5 nM in test [5]; 22 nM in test [6]. For the same molecule, the Kd amounted to 37 nM in test [7]; 4.8 nM in test [8]; 10 nM in test [9]; 34 nM in [10]; 12 nM in test [11]; 0.58 nM in test [12]. The Kd in test [13] came to 15 nM; in [14], 19 nM; in test [15], 10 nM; in test [16], 0.33 nM; in [17], 8.1 nM; in test [18] it was 21 nM. For the same molecule, the Kd was determined as 4.5 nM in test [19] and 8.6 nM in test [20].
On to `N#C/N=c1\sccn1Cc1ccc(Cl)nc1` [THIACLOPRID OLEFIN], for which the Kd in test [1] is 4 nM; in [2], 4.3 nM; in test [3], 60 nM; in test [4], 247 nM; in test [5] it was 9.2 nM; in test [6], 4.9 nM. In addition, the Kd in [7] was 20 nM; in test [8], 299 nM; in [9], 4.7 nM; in [10], 144 nM; in test [11] it was 6.2 nM; in test [12], 4.8 nM. Moreover, the Kd worked out at 5.6 nM in test [13]; 13 nM in test [14]; 2.8 nM in test [15]; 1.8 nM in [16]; 3 nM in test [17]; 11 nM in test [18]. Further, the Kd in test [19] was 239 nM; in test [20] it was 3.1 nM.
